Assays:
16HBE cells [1] = test: GloSensor cAMP assay, inhibition of forskolin-stimulated cAMP production; format: cell-based, human; details: increasing concentrations, GloSensor luminescence, FIG. 3
Method: Also shown is that overexpression of the wildtype form of RGS21 blunts bitter signaling and increases cAMP levels. Inhibition of forskolin-stimulated cAMP production by treatment with indicated concentrations of denatonium-B was determined 24 hours post-transfection by detection of Promega's cAMP GloSensor-dependent luminescence. Twenty-four hours post-transfection, cells were re-plated on poly-D-lysine-treated, clear-bottom, white 384-well plates at a density of 15,000 cells/well. Forty-eight hours post-transfection, culture medium was aspirated and cells were washed once with assay medium (DMEM (without FBS or phenol), 15 mM HEPES pH 7.4) before being incubated for 2 hours with 20 ill/well of equilibration medium (assay medium with 4% GloSensor™ substrate (Promega; Madison, Wis.)). After two hours, 10 μl of 3× final concentration denatonium benzoate (diluted in 3 μM forskolin-containing assay medium) was added to each well and allowed to incubate for 10 minutes before GloSensor™ emission was read on a MicroBeta Plate Counter (PerkinElmer; Waltham, Mass.). Before plotting, luminescence counts were normalized to 100% maximal response for each condition to account for variability in GloSensor™ expression, transfection efficiency, and the exact number of cells per well.

16HBE cells [2] = test: FLIPR calcium flux assay, intracellular calcium release on tastant addition; format: cell-based, human; details: increasing concentrations of tastant, calcium-sensitive dye, FIG. 2
Method: Calcium flux assays were performed as previously described in Strachan et al., “Ribosomal S6 kinase 2 directly phosphorylates the 5-hydroxytryptamine 2A (5-HT2A) serotonin receptor, thereby modulating 5-HT2A signaling,” J Biol Chem 284:5557-5573 (2009). 16-HBE cells were trypsinized, counted, and seeded onto clear-bottomed 96 well plates (Greiner Bio-One; Monroe, N.C.) pre-coated with poly-D-lysine, at a density of […]. After a 24 hour incubation, media was removed and replaced with a Ca^2+ assay buffer (20 mM HEPES, lx HBSS, 2.5 mM probenecid, and Ca^2+ assay dye, pH 7.4) (FLIPR® Calcium Assay Kit; Molecular Device Corp, Sunnyvale, Calif.). After a 1-hour incubation at 37° C., during which the cells were allowed to take up the dye, fluorescence responses of cells were measured with a FLIPRTETRA (Molecular Device Corp; Sunnyvale, Calif.) device upon the addition of variable concentrations of tastant, or vehicle, in the presence of assay buffer (20 mM HEPES, pH 7.4, 1× Hanks Balanced Salt [Invitrogen; Carlsbad, Calif.] and 2.5 mM probenecid). After data acquisition, a subsequent addition of […] was injected into each well, and fluorescence was measured again. […] The cells were loaded with fluorescent calcium-sensitive dye, treated with a variety of tastants, and monitored for intracellular calcium release with a FLIPR imaging device.

CC[N+](CC)(CC(=O)Nc1c(C)cccc1C)Cc1ccccc1 [denatonium-B, denatonium benzoate]
intracellular cyclic AMP concentration in 16HBE cells (16HBE cells [1]): decreasing the concentration of intracellular cyclic AMP | intracellular calcium response of 16HBE cells (16HBE cells [2]): increase in intracellular calcium

From patent US9128079B2, “Methods of using lung or bronchial epithelial cells to identify bitter taste modulators” (The Coca-Cola Company, priority 2011, dated 2015)
